Patent publication US20050222182A1, “Stabilized pharmaceutical compositions of halofuginone and other quinazolinone derivatives” (priority 2002, published 2005)
Like-named read-outs stand apart in the source and are kept apart here.

Legend:
[1] = assay type: physicochemical; settings: for Ea (degradation activation energy): 1 mg/ml
Description: Halofuginone HBr powder was dissolved in acetonitrile and the solution was mixed with 4 volumes ([…]) of borate buffer to yield a […] solution. Buffer solutions at pH 5.5, 6.5, and 7.5 were prepared by mixing various amounts of sodium borate solution (12 g in 240 ml DDW) to boric acid solution (12 g in 240 ml DDW). The solutions were filtered through a 0.2 micron filter into a tightly closed glass vial coated with aluminum foil to protect from light. The solutions (1.25 ml, 1 mg/ml in acetonitrile: buffer 1:4) were kept in temperature controlled incubators at 4, 25, 37 and 60° C. At time of analysis, about 50 μl of the solution was taken and immediately injected to the HPLC.
Halofuginone was determined by HPLC using the following equipment and conditions: • Instrument: HP 1050 with HPCHEM software • Column: C8, Lichospher 60 (5, μm) LichoCART 125-4, Cat. No. 1.50213 (Merck) (similar to Hypersil BDS C8 used by AminoLab) with precolumn Lichospher 100 RP-8, 5 μm, 4×4 mm, Cat. No. 1.50961 (Merck) • Column temp: ambient • Flow rate: isocratic, 1 ml/min Eluant: Acetonitrile: 0.1 M sodium citrate buffer pH3.0 at a 30:70 v/v • Detector: UV 254 nm • Sample volume: 20 μl • Run time: 15 min., halofuginone Rt=8.8 min.; degradation product Rt=11.7 Results:
Analysis: Halofuginone was analyzed by HPLC with UV detector. The retention times for halofuginone and its main degradation product (cis isomer) are 8.8 min and 11.7 min, respectively.
Stability: Halofuginone concentrations were followed for 24 hours. […] The decrease in halofuginone concentrations for the solutions kept at 25° C. and above is shown in FIG. 1 and the rate constants are summarized in Table 1. The degradation activation energies at different pH solutions were estimated from the plot of ln(Kobs) vs. 1/T and are summarized in Table 1. The activation energies were calculated from the slopes of ln(Kobs) vs. 1/T. The activation energies are in the range of 6.57-13.13 Kcal.

[2] = assay type: physicochemical
From the text: A commercially useful solution formulation was developed based on halofuginone dissolved in lactate buffer and the stability data shown in FIGS. 2 and 3. The stability of halofuginone in sodium lactate buffer (4% pH 4) was unaffected by the presence of saline in the final solution.

[3] = physchem; assay type: physicochemical; settings: aqueous buffer, thermodynamic from solid
Description: The solubility of halofuginone in several solvents was first studied. Powder of halofuginone was dissolved in the different solvents, starting from over saturation and followed by dilutions.

Structure (SMILES): O=C(C[C@@H]1NCCC[C@H]1O)Cn1cnc2cc(Br)c(Cl)cc2c1=O (racemic) [halofuginone, 7-bromo-6-chloro-3-[3-(3-hydroxy-2-piperidinyl)-2-oxopropyl]-4(3H)-quinazolinone]
- Ea (degradation activation energy) ([1]; pH 5.5): 13.13 kcal
- Ea (degradation activation energy) ([1]; pH 6.5): 8.38 kcal
- Ea (degradation activation energy) ([1]; pH 7.5): 6.57 kcal
- Slope [ln(Kobs)/1/T] ([1]; pH 5.5): 26,134
- Activation energies (range over pH solutions) ([1]; pH 5.5-7.5): 6.57-13.13 Kcal
- Slope [ln(Kobs)/1/T] ([1]; pH 6.5): 16,685
- Slope [ln(Kobs)/1/T] ([1]; pH 7.5): 13,412
- Stability in lactate buffer pH 4.0 compared to distilled water [2]: higher stability

Structure (SMILES): O=C(CC1NCCCC1O)Cn1cnc2cc(Br)c(Cl)cc2c1=O (stereo not drawn) [halofuginone-Hbr]
- solubility [3]: ≥ 5000 µg/mL
